Measured values: paper PMC12377313, “New 1E,1′E-hydrazine-bis(phenoxy-1,2,3-triazol-acetamide) derivatives as potent inhibitors against acetylcholinesterase, butyrylcholinesterase, and α-glucosidase” (RSC Advances, 2025)
Read-outs that look alike come from different tables or passages of the source.

Legend:
[1] = test system: HEK293 embryonic kidney cells; experiment: MTT cell viability assay, HEK293; assay type: cell-based; conditions: Homo sapiens, read-out: IC50 (μM) HEK-293
Description: The human neuroblastoma cell line SH-SY5Y (ATCC® CRL-2266™) and HEK293 (ATCC® CRL-1573™) human embryonic kidney cells were grown in Dulbecco's Modified Eagle Medium/Nutrient Mixture F-12 (DMEM/F-12) culture containing 10% heat-inactivated fetal bovine serum (FBS) and 1% antibiotics. The cells were incubated at 37 °C in a humidified atmosphere of 5% CO2. Both cell lines were provided by the American Type Culture Collection (ATCC).[30,31]
SH-SY5Y (ATCC® CRL-2266™) and HEK293 (ATCC® CRL-1573™) cells were seeded into 96-well plates at a density of 5 × 10^3 cells per well, and allowed to adhere overnight in a humidified incubator at 37 °C with 5% CO2. After attachment, the cells were treated with eight different concentrations of the target compounds (200, 100, 50, 25, 12.5, 6.25, 3.125, and 1.5625 μM), prepared via serial 1 : 2 dilutions, for 24 hours. Each concentration was tested in triplicate.
(§1) Following treatment, 10 μL of MTT solution (5 mg mL^−1 in PBS) was added to each well and incubated for an additional 4 hours under the same conditions. At the end of the incubation period, the medium containing MTT was carefully removed, and the formazan crystals formed by viable cells were solubilized in 100 μL of DMSO per well. The absorbance was measured at 570 nm using a microplate reader. The net absorbance (after blank subtraction) was used to calculate the percentage cell viability relative to the untreated control cells, which was set at 100%. All results were expressed as mean ± standard deviation (SD) of three independent experiments.[32,33]

α-glucosidase = α-glucosidase (Saccharomyces cerevisiae, UniProt P53341); experiment: α-Glucosidase inhibition assay (p-NPG substrate); assay type: biochemical, yeast
Description: For this assay, the yeast form of α-glucosidase was used and p-nitrophenyl-α-D-glycopyranoside (p-NPG) was used as the substrate. The required solutions of these materials were prepared in a phosphate buffer solution (pH of 7.4 and a concentration of 5 mM). […] Subsequently, a mixture containing 200 μL of phosphate solution, 50 μL of the substrate, and 5–200 μL of the sample solution was pre-incubated at 35 °C for 3 min for α-glucosidase.

BChE = BChE (Homo sapiens, UniProt P06276); experiment: biochemical
[2] = test system: SH-SY5Y neuroblastoma cells; experiment: MTT cell viability assay, SH-SY5Y; assay type: cell-based, human; conditions: for IC50: read-out: IC50 (μM) SH-SY5Y; for Selectivity (selectivity index): HEK293 versus SH-SY5Y
Description: The cells were incubated at 37 °C in a humidified atmosphere of 5% CO2. Both cell lines were provided by the American Type Culture Collection (ATCC).[30,31]
Each concentration was tested in triplicate.
as §1

AChE = AChE (Homo sapiens, UniProt P22303); experiment: biochemical; assay type: biochemical
[3] = HEK293, 24 h treatment, MTT, mean ± SD (n = 3)
[4] = 24 h treatment, MTT, mean ± SD (n = 3)
[5] = Homo sapiens, SH-SY5Y, 24 h, 24 h treatment, MTT, mean ± SD (n = 3)
[6] = read-out: IC50 (nM) α-Glucosidase

BChE, sequence (P06276 29-602): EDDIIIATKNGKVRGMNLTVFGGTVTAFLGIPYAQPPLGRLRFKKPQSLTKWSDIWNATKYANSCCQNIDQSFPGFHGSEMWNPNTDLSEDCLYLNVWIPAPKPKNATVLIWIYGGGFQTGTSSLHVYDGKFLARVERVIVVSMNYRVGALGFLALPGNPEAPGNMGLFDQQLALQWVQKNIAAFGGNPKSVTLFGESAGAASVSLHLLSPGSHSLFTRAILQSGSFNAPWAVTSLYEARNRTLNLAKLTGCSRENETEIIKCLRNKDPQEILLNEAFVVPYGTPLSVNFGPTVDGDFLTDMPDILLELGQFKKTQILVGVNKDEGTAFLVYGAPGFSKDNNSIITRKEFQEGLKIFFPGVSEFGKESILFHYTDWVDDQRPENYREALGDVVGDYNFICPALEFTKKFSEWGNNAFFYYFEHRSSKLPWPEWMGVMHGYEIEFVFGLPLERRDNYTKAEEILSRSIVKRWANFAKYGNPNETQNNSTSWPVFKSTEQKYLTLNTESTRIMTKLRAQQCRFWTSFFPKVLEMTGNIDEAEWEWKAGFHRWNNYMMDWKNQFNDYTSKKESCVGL
α-glucosidase, sequence (P53341 whole entry): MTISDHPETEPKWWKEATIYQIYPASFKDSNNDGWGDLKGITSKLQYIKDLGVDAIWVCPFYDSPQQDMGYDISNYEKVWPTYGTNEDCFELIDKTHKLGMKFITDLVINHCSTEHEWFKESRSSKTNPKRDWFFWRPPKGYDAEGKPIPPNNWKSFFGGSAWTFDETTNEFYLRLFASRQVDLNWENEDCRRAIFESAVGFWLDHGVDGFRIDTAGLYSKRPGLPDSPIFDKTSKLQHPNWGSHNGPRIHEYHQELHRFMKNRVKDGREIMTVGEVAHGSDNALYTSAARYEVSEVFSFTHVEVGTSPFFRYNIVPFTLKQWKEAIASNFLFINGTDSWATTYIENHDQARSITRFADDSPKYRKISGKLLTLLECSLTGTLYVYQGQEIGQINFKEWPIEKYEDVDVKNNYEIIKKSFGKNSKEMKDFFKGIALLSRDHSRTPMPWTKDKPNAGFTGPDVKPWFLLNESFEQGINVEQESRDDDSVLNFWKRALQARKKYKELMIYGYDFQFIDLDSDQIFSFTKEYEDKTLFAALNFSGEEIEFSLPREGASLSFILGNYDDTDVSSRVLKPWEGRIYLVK
AChE, sequence (P22303 32-614): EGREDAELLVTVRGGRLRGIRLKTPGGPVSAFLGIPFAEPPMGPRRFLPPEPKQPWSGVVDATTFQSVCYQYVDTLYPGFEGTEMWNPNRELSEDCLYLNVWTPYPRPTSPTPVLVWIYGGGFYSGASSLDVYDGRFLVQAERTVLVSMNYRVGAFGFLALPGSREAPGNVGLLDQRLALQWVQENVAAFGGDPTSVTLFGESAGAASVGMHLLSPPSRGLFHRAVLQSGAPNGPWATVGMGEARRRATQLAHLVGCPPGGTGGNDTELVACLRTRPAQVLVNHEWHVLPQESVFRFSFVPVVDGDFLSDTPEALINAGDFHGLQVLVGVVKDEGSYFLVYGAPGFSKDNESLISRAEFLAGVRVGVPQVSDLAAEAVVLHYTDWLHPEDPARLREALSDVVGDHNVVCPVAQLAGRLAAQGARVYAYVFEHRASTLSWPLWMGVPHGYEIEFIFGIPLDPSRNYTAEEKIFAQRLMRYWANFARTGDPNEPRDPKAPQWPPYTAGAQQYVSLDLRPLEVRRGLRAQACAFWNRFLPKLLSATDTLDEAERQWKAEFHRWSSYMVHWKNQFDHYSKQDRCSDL

`COc1ccc(NC(=O)Cn2cc(COc3ccc(/C=N/N=C/c4ccc(OCc5cn(CC(=O)Nc6ccc(OC)cc6OC)nn5)cc4)cc3)nn2)c(OC)c1` [Compound 10e, 2,2′-((((((1E,1′E)-Hydrazine-1,2-diylidenebis(methaneylylidene))bis(4,1-phenylene))bis(oxy))bis(methylene))bis(1H-1,2,3-triazole-4,1-diyl))bis(N-(2,4-dimethoxyphenyl)acetamide)] showed an IC50 [1, 3] of 68.95 ± 0.41 µM, an IC50 (α-glucosidase) of 58.5 ± 4.27 nM and an IC50 (BChE) of 0.0163 ± 0.00209 µM. The IC50 [2, 4] was 33.19 ± 0.25 µM, the “Selectivity (selectivity index)” value [2] was 2.1 and the IC50 [2, 5] was over 30 µM. For the same compound, the IC50 (AChE; read-out: IC50 (nM) AChE) was 140 ± 9.43 nM.

`Cc1cccc(NC(=O)Cn2cc(COc3ccc(/C=N/N=C/c4ccc(OCc5cn(CC(=O)Nc6cccc(C)c6)nn5)cc4)cc3)nn2)c1` [Compound 10b, 2,2′-((((((1E,1′E)-Hydrazine-1,2-diylidenebis(methaneylylidene))bis(4,1-phenylene))bis(oxy))bis(methylene))bis(1H-1,2,3-triazole-4,1-diyl))bis(N-(m-tolyl)acetamide)] was tested, and the IC50 [1, 3] was 43.42 ± 0.36 µM, the IC50 (α-glucosidase) was 62.1 ± 5.43 nM and the IC50 (BChE) was 0.0183 ± 0.00484 µM. The “Selectivity (selectivity index)” value [2] was 2.7, the IC50 [2, 5] was 15.8 ± 0.2 µM and the IC50 (AChE; read-out: IC50 (nM) AChE) was 167 ± 9.46 nM.

`O=C(Cn1cc(COc2ccc(/C=N/N=C/c3ccc(OCc4cn(CC(=O)Nc5ccc(Br)cc5)nn4)cc3)cc2)nn1)Nc1ccc(Br)cc1` [Compound 10l, 2,2′-((((((1E,1′E)-Hydrazine-1,2-diylidenebis(methaneylylidene))bis(4,1-phenylene))bis(oxy))bis(methylene))bis(1H-1,2,3-triazole-4,1-diyl))bis(N-(4-bromophenyl)acetamide)] was tested, and the IC50 [1, 3] was 92.86 ± 0.71 µM, the IC50 (α-glucosidase) was 39.1 ± 5.1 nM and the IC50 (BChE) was 0.0164 ± 0.00474 µM. The IC50 [2, 4] was 42.15 ± 0.37 µM, the “Selectivity (selectivity index)” value [2] was 2.2 and the IC50 [2, 5] was over 30 µM. It also gave an IC50 (AChE; read-out: IC50 (nM) AChE) of 148 ± 8.23 nM.

Work on `Cc1ccccc1NC(=O)Cn1cc(COc2ccc(/C=N/N=C/c3ccc(OCc4cn(CC(=O)Nc5ccccc5C)nn4)cc3)cc2)nn1` [Compound 10a, 2,2′-((((((1E,1′E)-Hydrazine-1,2-diylidenebis(methaneylylidene))bis(4,1-phenylene))bis(oxy))bis(methylene))bis(1H-1,2,3-triazole-4,1-diyl))bis(N-(o-tolyl)acetamide)] yielded an IC50 [1, 3] of 78.21 ± 0.42 µM, an IC50 (α-glucosidase) of 43.1 ± 8.21 nM and an IC50 (BChE) of 0.0184 ± 0.00309 µM. The “Selectivity (selectivity index)” value [2] was 9.5, the IC50 [2, 5] was 8.22 ± 0.12 µM and the IC50 (AChE; read-out: IC50 (nM) AChE) was 163 ± 5.38 nM.

`O=C(Cn1cc(COc2ccc(/C=N/N=C/c3ccc(OCc4cn(CC(=O)Nc5cccc(Cl)c5)nn4)cc3)cc2)nn1)Nc1cccc(Cl)c1` [Compound 10i, 2,2′-((((((1E,1′E)-Hydrazine-1,2-diylidenebis(methaneylylidene))bis(4,1-phenylene))bis(oxy))bis(methylene))bis(1H-1,2,3-triazole-4,1-diyl))bis(N-(3-chlorophenyl)acetamide)] was tested, and the IC50 [1, 3] was 37.4 ± 0.55 µM, the IC50 (α-glucosidase) was 45.8 ± 4.71 nM and the IC50 (BChE) was 0.0153 ± 0.00316 µM. For the same compound, the “Selectivity (selectivity index)” value [2] was 8.8, the IC50 [2, 5] was 4.26 ± 0.08 µM and the IC50 (AChE; read-out: IC50 (nM) AChE) was 164 ± 9.54 nM.

Compound `O=C(Cn1cc(COc2ccc(/C=N/N=C/c3ccc(OCc4cn(CC(=O)Nc5ccccc5F)nn4)cc3)cc2)nn1)Nc1ccccc1F` [Compound 10g, 2,2′-((((((1E,1′E)-Hydrazine-1,2-diylidenebis(methaneylylidene))bis(4,1-phenylene))bis(oxy))bis(methylene))bis(1H-1,2,3-triazole-4,1-diyl))bis(N-(2-fluorophenyl)acetamide)] has an IC50 [1, 3] of 86.45 ± 0.52 µM, an IC50 (α-glucosidase) of 56.7 ± 6.34 nM and an IC50 (BChE) of 0.0124 ± 0.00321 µM. The “Selectivity (selectivity index)” value [2] was 6.7, the IC50 [2, 5] was 12.9 ± 0.13 µM and the IC50 (AChE; read-out: IC50 (nM) AChE) was 112 ± 9.6 nM.

In the case of `O=C(Cn1cc(COc2ccc(/C=N/N=C/c3ccc(OCc4cn(CC(=O)Nc5ccc(Cl)cc5)nn4)cc3)cc2)nn1)Nc1ccc(Cl)cc1` [Compound 10j, 2,2′-((((((1E,1′E)-Hydrazine-1,2-diylidenebis(methaneylylidene))bis(4,1-phenylene))bis(oxy))bis(methylene))bis(1H-1,2,3-triazole-4,1-diyl))bis(N-(4-chlorophenyl)acetamide)], the IC50 [1, 3] is reported as 67.43 ± 0.47 µM, the IC50 (α-glucosidase) is reported as 34.3 ± 3.49 nM and the “folds more potent than the standard inhibitor acarbose against α-glucosidase” value (α-glucosidase; relative to acarbose) is reported as 1.7 fold. The IC50 (BChE) was 0.0164 ± 0.00443 µM, the “Selectivity (selectivity index)” value [2] was 10.0 and the IC50 [2, 5] was 6.75 ± 0.18 µM. For the same compound, the IC50 (AChE; read-out: IC50 (nM) AChE) was 145 ± 6.23 nM and the “fold diminished anti-AChE inhibitory activity relative to 10k” value (AChE; removal of 2-chloro substituent, versus 10k) was 1.3 fold.

Compound `CNC(=O)c1cc(Oc2ccc(NC(=O)Nc3ccc(Cl)c(C(F)(F)F)c3)cc2)ccn1` [Sorafenib, reference compound] has an IC50 [1, 3] of 16.22 ± 0.14 µM and an IC50 [2, 5] of 3.88 ± 0.12 µM.

`Cc1ccc(NC(=O)Cn2cc(COc3ccc(/C=N/N=C/c4ccc(OCc5cn(CC(=O)Nc6ccc(C)cc6)nn5)cc4)cc3)nn2)cc1` [Compound 10c, 2,2′-((((((1E,1′E)-Hydrazine-1,2-diylidenebis(methaneylylidene))bis(4,1-phenylene))bis(oxy))bis(methylene))bis(1H-1,2,3-triazole-4,1-diyl))bis(N-(p-tolyl)acetamide)] showed an IC50 [1, 3] of 46.91 ± 0.32 µM, an IC50 (α-glucosidase) of 67 ± 7.88 nM and an IC50 (BChE) of 0.0171 ± 0.00321 µM. For the same compound, the IC50 [2, 4] was 11.9 ± 0.2 µM, the “Selectivity (selectivity index)” value [2] was 3.9 and the IC50 [2, 5] was 12 to 16 µM. It also gave an IC50 (AChE; read-out: IC50 (nM) AChE) of 164 ± 9.7 nM.

`Cc1cccc(NC(=O)Cn2cc(COc3ccc(/C=N/N=C/c4ccc(OCc5cn(CC(=O)Nc6cccc(C)c6C)nn5)cc4)cc3)nn2)c1C` [Compound 10d, 2,2′-((((((1E,1′E)-Hydrazine-1,2-diylidenebis(methaneylylidene))bis(4,1-phenylene))bis(oxy))bis(methylene))bis(1H-1,2,3-triazole-4,1-diyl))bis(N-(2,3-dimethylphenyl)acetamide)] gave an IC50 [1, 3] of 75.22 ± 0.35 µM, an IC50 (α-glucosidase) of 71.2 ± 8.14 nM and an IC50 (BChE) of 0.0149 ± 0.00208 µM. For the same compound, the IC50 [2, 4] was 16.4 ± 0.21 µM, the “Selectivity (selectivity index)” value [2] was 4.6 and the IC50 [2, 5] was 12 to 16 µM. The IC50 (AChE; read-out: IC50 (nM) AChE) was 131 ± 7.23 nM.

`O=C(Cn1cc(COc2ccc(/C=N/N=C/c3ccc(OCc4cn(CC(=O)Nc5ccccc5[N+](=O)[O-])nn4)cc3)cc2)nn1)Nc1ccccc1[N+](=O)[O-]` [Compound 10m, 2,2′-((((((1E,1′E)-Hydrazine-1,2-diylidenebis(methaneylylidene))bis(4,1-phenylene))bis(oxy))bis(methylene))bis(1H-1,2,3-triazole-4,1-diyl))bis(N-(2-nitrophenyl)acetamide)] gave an IC50 ([1]; HEK293, 24 h) of 46.45 ± 0.45 µM, an IC50 (α-glucosidase; [6]) of 36.6 ± 4.86 nM and an IC50 (BChE) of 0.0169 ± 0.00483 µM. For the same compound, the “Selectivity (selectivity index)” value [2] was 1.6, the IC50 ([2]; Homo sapiens, SH-SY5Y, 24 h) was 28.33 ± 0.26 µM and the IC50 (AChE) was 157 ± 8.65 nM.

With `O=C(Cn1cc(COc2ccc(/C=N/N=C/c3ccc(OCc4cn(CC(=O)Nc5ccc([N+](=O)[O-])cc5)nn4)cc3)cc2)nn1)Nc1ccc([N+](=O)[O-])cc1` [Compound 10n, 2,2′-((((((1E,1′E)-Hydrazine-1,2-diylidenebis(methaneylylidene))bis(4,1-phenylene))bis(oxy))bis(methylene))bis(1H-1,2,3-triazole-4,1-diyl))bis(N-(4-nitrophenyl)acetamide)] the IC50 ([1]; HEK293, 24 h) was 38.42 ± 0.19 µM, the IC50 (α-glucosidase; [6]) was 65.1 ± 6.01 nM and the IC50 (BChE) was 0.0139 ± 0.0043 µM. The “Selectivity (selectivity index)” value [2] was 7.4, the IC50 ([2]; Homo sapiens, SH-SY5Y, 24 h) was 5.22 ± 0.12 µM and the IC50 (AChE) was 173 ± 9.71 nM.

`CCc1ccc(NC(=O)Cn2cc(COc3ccc(/C=N/N=C/c4ccc(OCc5cn(CC(=O)Nc6ccc(CC)cc6)nn5)cc4)cc3)nn2)cc1` [Compound 10f, 2,2′-((((((1E,1′E)-Hydrazine-1,2-diylidenebis(methaneylylidene))bis(4,1-phenylene))bis(oxy))bis(methylene))bis(1H-1,2,3-triazole-4,1-diyl))bis(N-(4-ethylphenyl)acetamide)] showed an IC50 [1, 3] of 33.2 ± 0.55 µM, an IC50 (α-glucosidase) of 66.4 ± 4.43 nM and an IC50 (BChE) of 0.017 ± 0.00546 µM. For the same compound, the “Selectivity (selectivity index)” value [2] was 4.5, the IC50 [2, 5] was 7.33 ± 0.11 µM and the IC50 (AChE; read-out: IC50 (nM) AChE) was 159 ± 6.17 nM.
